Assay results published in paper PMC9146228, “Bioactivity of Novel Pyrazole-Thiazolines Scaffolds against Trypanosoma cruzi: Computational Approaches and 3D Spheroid Model on Drug Discovery for Chagas Disease” (Pharmaceutics, 2022).

How the values were obtained:
[1] = tested on: T. cruzi (Dm28c-Luc) intracellular amastigotes; assay: Trypanocidal activity against intracellular amastigotes in infected Vero cell monolayers; type: cell-based, Trypanosoma cruzi; details: Trypanosoma cruzi; Dm28c-Luc in Vero cells, 72 h, mean ± SD; read-out: Trypanocidal Activity Intracellular Amastigotes IC90
Protocol: The susceptibility of intracellular amastigotes to pyrazole-thiazoline derivatives (series 1 and 2) was evaluated using 24 h T. cruzi-infected Vero cell monolayers (10:1 parasite/host cell ratio). Then, the cultures were washed with PBS to remove non-internalized parasites, and 200 μL of fresh medium with a serial dilution of pyrazole-thiazoline derivatives and Bz (0.41–100 µM) was added for 72 h at 37 °C.
(§1) After 72 h of treatment, luciferin (300 µg/mL) was added to the culture, and the viability of the parasites was assessed by reading the luminescent signal on the GloMax reader (Promega Corporation, Madison, WI, USA). Controls were also performed in non-toxic concentrations of DMSO (≤ 1%). The concentration that reduces the number of viable parasites by 50% (IC50) or 90% (IC90) was calculated by linear regression. The selectivity index (SI) was calculated as CC50/IC50 for each parasite form.

[2] = tested on: T. cruzi Dm28c-Luc in Vero cell cultures; assay: Reversibility (washout) assay; type: cell-based, Trypanosoma cruzi; details: 50 µM, 72 h treatment then 72 h drug-free
Protocol: Then, the cultures were washed with PBS, and maintained for another 72 h at 37 °C in a drug-free medium. Trypomastigotes released in the culture supernatant were detected by transferring the culture medium to 96-well plates, followed by luciferin (300 µg/mL) addition. Viable intracellular amastigotes were also accessed by adding luciferin solution to the cell monolayers.

[3] = Cytotoxicity in vitro assay (CellTiter-Glo); type: cell-based; details: African green monkey, Vero cells, mean ± SD
Protocol: (§2) Vero cells, obtained from the Rio de Janeiro Cell Bank (BCRJ code 0245), were dissociated with trypsin–EDTA solution (0.025%), and maintained in RPMI 1640 medium supplemented with 10% fetal bovine serum (FBS) at 37 °C in a humidified atmosphere of 5% CO2.
(§3) The compound toxicity was evaluated in Vero cell cultures. Briefly, Vero cells were seeded in 96-well white culture plates at a density of 1.5 × 10^4 cells/well for 24 h at 37 °C and 5% CO2. Thereafter, the cell monolayers were washed with phosphate-buffered saline (PBS) and 200 μL of fresh medium with a serial dilution of the pyrazole-thiazoline derivatives and Bz (1.9–500 µM) added. The cell viability was determined by luminescent assay using the CellTiter-Glo Kit (Promega Corporation, Madison, WI, USA) based on the ATP level. After 72 h of treatment, 20 μL of CellTiter-Glo solution was added per well, and cultures were kept for 2 min under agitation. The luminescent signal was read on the GloMax reader (Promega Corporation, Madison, WI, USA). The concentration of compounds that reduced 50% of cell viability (CC50) was calculated by linear regression. At least three independent assays were performed in duplicate.

[4] = tested on: Vero cells; assay: Cytotoxicity in vitro assay (CellTiter-Glo); type: cell-based; details: 72 h, mean ± SD
Protocol: as §2, §3

[5] = tested on: T. cruzi (Dm28c-Luc) trypomastigotes; assay: microbe, parasite or virus in culture; type: cell-based, Trypanosoma cruzi; details: Trypanosoma cruzi; Dm28c-Luc, 24 h, mean ± SD; read-out: Trypanocidal Activity Trypomastigotes IC90
Protocol: The screening assays were performed with T. cruzi clone Dm28c (TcI) genetically modified to express luciferase gene (Dm28c-Luc), kindly provided by Dr. Cristina Henriques. Trypomastigotes were isolated from T. cruzi-infected Vero cell monolayers (10:1 parasites/host cell ratio). On the 4th day post-infection (dpi), free trypomastigotes in the culture supernatant were harvested, and the number of parasites/mL was quantified in a Neubauer chamber.
The trypanocidal activity of the pyrazole-thiazoline derivatives was evaluated against trypomastigote and intracellular amastigote forms of T. cruzi (Dm28c-Luc). Tissue-derived trypomastigotes (1 × 10^6 parasites/well) were incubated with pyrazole-thiazoline derivatives and Bz in different concentrations (0.41–100 µM) for 24 h at 37 °C in a humidified atmosphere and 5% CO2. The parasite viability was determined by the addition of luciferin (300 µg/mL), followed by luminescence detection on the GloMax microplate reader (Promega Corporation, Madison, WI, USA).
as §1

[6] = tested on: T. cruzi (Dm28c-Luc)-infected Vero cell spheroids; assay: 3D culture model: T. cruzi-infected Vero cell spheroids; type: cell-based, Trypanosoma cruzi; details: 72 h; for parasite load, arbitrary luminescence unit (ALU): untreated ALU = 166,678 ± 22,824
Protocol: Tridimensional Vero cell cultures were obtained as previously described. Briefly, the isolated cells (2 × 10^4/well) were cultured in 96-well U-bottom plates previously coated with 1% agarose. The spheroids were kept for 5 days at 37 °C in RPMI 1640 medium supplemented with 10% FBS for complete three-dimensional organization. Both 2D and 3D culture models were used for trypanocidal activity assays.
Vero cell spheroids were infected for 24 h with 2 × 10^5 trypomastigotes (Dm28c-Luc). […] Parasite load was assessed by the luminescence reaction after adding the luciferase substrate (luciferin 300 µg/mL). In addition, fluorescence microscopy images of untreated and treated T. cruzi-infected spheroids were acquired after fixing the cultures with 4% paraformaldehyde in PBS and 4′,6-diamidino-2-phenylindole (DAPI) staining, a DNA dye. The samples were observed under the Zeiss Axio Imager M2 fluorescence microscope (Carl Zeiss, Baden-Württemberg, Germany).

[7] = tested on: T. cruzi cysteine proteases (trypomastigote protein extract); assay: Proteinase activity in solution (Z-FR-AMC); type: biochemical, Trypanosoma cruzi; details: up to 100 µM, Z-FR-AMC substrate
Protocol: Trypomastigote protein extracts (Dm28c-Luc; 10^8 parasites/mL) were obtained as previously described. The cysteine protease activity of the total protein extracts (5 µg) was measured using the reaction buffer (CH3COONa 10 mM, pH 5.0 containing 1 mM DTT), in the presence of the fluorogenic peptide substrate […], CBZ-L-Phenylalanyl-l-Arginine amide (Z -FR-AMC), and serial dilutions of pyrazole-thiazolines derivatives (100–6.25 µM). The samples were incubated for 45 min at room temperature. The variation in arbitrary fluorescence units (AFU), corresponding to the enzymatic cleavage of the fluorogenic substrate, was monitored in a SpectraMax M2e reader (Molecular Devices, Sunnyvale, CA, USA) for 1 h, with excitation values at 370 nm and emission values at 460 nm. Extracts incubated with 0.5% DMSO or with cysteine protease inhibitor E-64 were used as […]. […] The inhibitory activity was expressed as percentage inhibition.

Clc1ccc(-n2cc(C3=NCCS3)cn2)c(Cl)c1 [Compound 2c, 2-(1-(2,4-dichlorophenyl)-1H-pyrazol-4-yl)-4,5-dihydrothiazole]
IC90 [1]: 16.9 ± 2.5 µM
reduction of release of trypomastigotes in the culture supernatant after washout [2]: 85%
inhibition at 50 µM ([2]; Trypanosoma cruzi, Vero, read-out: inhibition of cell monolayer infection (intracellular amastigotes) after washout): 78%
CC50 at 72 h [3]: > 100 µM
CC50 [4]: 107 ± 11.4 µM
IC90 [5]: 2.8 ± 0.6 µM
parasite load, arbitrary luminescence unit (ALU) ([6]; 25 µM): 3329 ± 250 ALU
parasite load, arbitrary luminescence unit (ALU) ([6]; 50 µM): 1648 ± 343 ALU
inhibition compared to untreated T. cruzi-infected microtissue ([6]; 25 and 50 µM): approximately 98%
maximum inhibition of cysteine protease activity [7]: ≤ 10%
